# Assay results taken from US11970512B2, “Amphotericin B derivatives with improved therapeutic index” (The Board of Trustees of the University of Illinois, priority 2013, dated 2024).
# Read-outs that look alike come from different tables or passages of the source.
# How the values were obtained:
# Saccharomyces cerevisiae = assay: Broth microdilution assay (MIC) against Saccharomyces cerevisiae; assay type: cell-based; conditions: read-out: MIC (μM) S.cerevisiae
# Description: (§1) With efficient access to this novel AmB chemotype, ureas 2-4 were compared to AmB and a range of previously reported AmB derivatives in an in vitro antifungal and human cell toxicity screen. Yeast toxicity was measured with broth microdilution assays (MIC) against Saccharomyces cerevisiae. Human cell toxicity was studied by determining the amount of compound required to cause 90% hemolysis of human erythrocytes (EH90). […] Methyl esterification (AmBME) retains antifungal activity at 0.25 μM against S. cerevisiae, while decreasing hemolysis concentration to one third that seen with AmB. […] Hemolysis activity remained similar to AmBME and C41MeAmB. Bis-amino alkylated amide derivative AmBNR2 was previously shown to moderately improve the therapeutic index.^[19]
# (§2) Each derivative proposed herein is tested for biological activity against both yeast and human cells to determine its therapeutic index. A broth microdilution experiment determines the MIC (minimum inhibitory concentration) of each derivative against S. cerevisiae and the clinically relevant C. albicans, thereby establishing the antifungal activity of each novel derivative. To test for toxicity against human cells, each compound is exposed to a hemolysis assay against red blood cells which determines the concentration required to cause 90% lysis of human red blood cells (EH90). Additionally, each compound is exposed to human primary renal tubule cells to determine the toxicity of each compound against kidney cells. These assays when compared against the known values of AmB against the same cell lines determine the improvement in therapeutic index of each compound.
# human erythrocytes = assay type: cell-based; conditions: for EH90 as multiple of that observed with AmB: human
# Description: as §1, §2
# Candida albicans = assay: Broth microdilution assay (MIC) against C. albicans; assay type: cell-based; conditions: read-out: MIC (μM) against C. albicans
# Description: Urea derivatives 2-4 maintain potent antifungal activity ranging from 0.125 μM to 3 μM against S. cerevisiae. […] AmBCU required 324 μM to cause 90% hemolysis in red blood cells, more than 30× required by AmB. Encouraged by this initial therapeutic index screen the urea series was further tested against the clinically relevant fungal cell line Candida albicans. C. albicans is the most common human fungal infection. AmB inhibits yeast grown of C. albicans at 0.25 μM. Similar to the trend seen with S. cerevisiae, the potency of urea derivatives […] increased with increasing amount of cationic character. AmBAU, AmBMU, and AmBCU require 0.25, 0.5, and 1 μM respectively (Table 2).
# as §2
# [1] = Acute toxicity, single intravenous administration to healthy mice, lethality; assay type: in vivo
# Description: FIG. 40 is a graph depicting lethality in healthy mice of single intravenous administration in the doses indicated of AmB, AmBMU, or AmBAU.
# In a separate set of experiments, acute toxicity was evaluated by single intravenous administration of 1, 2, 4, 8, 16, 32, or 64 mg/kg AmB or its derivatives to healthy mice, followed by monitoring for lethality. […] AmBAU was drastically less toxic with >50% lethality not being reached until the 64 mg/kg dosage group.
# C. albicans = assay: Mouse model of disseminated candidiasis, kidney fungal burden; assay type: in vivo; conditions: neutropenic mice; for reduction of kidney fungal burden relative to AmB: single intraperitoneal 16 mg/kg dose, 24 hours post inoculation; for reducing the fungal burden present in the kidneys, compared with AmB (in words): single intraperitoneal dose, all three tested doses (1, 4, and 16 mg/kg)
# Description: FIG. 39 is a group of three graphs depicting kidney fungal load (colony forming units, cfu) in neutropenic mice inoculated intravenously with C. albicans and then treated two hours later with a single intraperitoneal dose of vehicle control, AmB, AmBMU, or AmBAU. FIG. 39A, 1 mg/kg AmB, AmBMU, or AmBAU. FIG. 39B, 4 mg/kg AmB, AmBMU, or AmBAU. FIG. 39C, 16 mg/kg AmB, AmBMU, or AmBAU.
# The antifungal efficacies of AmBMU and AmBAU were tested in a mouse model of disseminated candidiasis. In this experiment neutropenic mice were infected with C. albicans via the tail vein, and then 2 hours post infection the mice were treated with a single intraperitoneal injection of AmB, AmBMU, or AmBAU. Then 2, 6, 12, and 24 hours post infection the mice were sacrificed, and the fungal burden present in their kidneys was quantified. […] The differences were most pronounced at the 16 mg/kg dose at 24 hours post inoculation. Relative to AmB, AmBMU reduced the fungal burden by 1.2 log units (p≤0.001), and AmBAU reduced the fungal burden by nearly 3 log units (p≤0.0001).
# yeast = conditions: in vitro studies; cited from earlier work
# [2] = Candida albicans, broth microdilution
# [3] = Saccharomyces cerevisiae, broth microdilution
smiles,measurement,setting,value
"CNC(=O)[C@H]1[C@@H]2C[C@@H](O[C@@H]3O[C@H](C)[C@@H](O)[C@H](N)[C@@H]3O)/C=C/C=C/C=C/C=C/C=C/C=C/C=C/[C@H](C)[C@@H](O)[C@@H](C)[C@H](C)OC(=O)C[C@H](O)C[C@H](O)CC[C@@H](O)[C@H](O)C[C@H](O)C[C@](O)(C[C@@H]1O)O2 [AmBMA, reference compound]",MIC,Saccharomyces cerevisiae; broth microdilution,0.25 µM
same,EH90 (μM) red blood cells,human erythrocytes,15.32 ± 3.39 µM
"C[C@@H]1[C@H](O)[C@@H](C)/C=C/C=C/C=C/C=C/C=C/C=C/C=C/[C@H](O[C@@H]2O[C@H](C)[C@@H](O)[C@H](N)[C@@H]2O)C[C@@H]2O[C@](O)(C[C@@H](O)C[C@@H](O)[C@H](O)CC[C@@H](O)C[C@@H](O)CC(=O)O[C@H]1C)C[C@H](O)[C@H]2C(=O)O [AmB, amphotericin B]",MIC,Candida albicans; broth microdilution,0.25 µM
same,MIC,Saccharomyces cerevisiae; broth microdilution,0.5 µM
same,lethality,[1]; single intravenous 4 mg/kg,All mice in the 4 mg/kg AmB dosage group died within seconds
CC1OC(O[C@H]2/C=C/C=C/C=C/C=C/C=C/C=C/C=C/[C@H](C)[C@@H](O)[C@@H](C)[C@H](C)OC(=O)C[C@H](O)C[C@H](O)CC[C@@H](O)[C@H](O)C[C@H](O)C[C@]3(O)C[C@H](O)[C@@H](NC(=O)NCCN)C(C2)O3)C(O)C(N)C1O (stereo partly drawn) [AmBAU],MIC,Candida albicans; Candida albicans,0.25 µM
same,MIC,Saccharomyces cerevisiae; Saccharomyces cerevisiae,0.125 µM
same,dosage group at which >50% lethality was reached,[1]; single intravenous administration,64 mg/kg
same,reduction of kidney fungal burden relative to AmB,C. albicans,~3 log units
same,"reducing the fungal burden present in the kidneys, compared with AmB (in words)",C. albicans,substantially more effective than AmB
same,cell-killing activity / toxicity towards human red blood cells (in words),human erythrocytes,drastically decreased toxicity towards red blood cells
same,EH90 (μM) red blood cells,human erythrocytes; amount of compound required to cause 90% hemolysis of human erythrocytes,>500 µM
CNC(=O)N[C@H]1C2C[C@@H](OC3OC(C)C(O)C(N)C3O)/C=C/C=C/C=C/C=C/C=C/C=C/C=C/[C@H](C)[C@@H](O)[C@@H](C)[C@H](C)OC(=O)C[C@H](O)C[C@H](O)CC[C@@H](O)[C@H](O)C[C@H](O)C[C@](O)(C[C@@H]1O)O2 (stereo partly drawn) [AmBMU],MIC,Candida albicans; [2],0.5 µM
same,MIC,Saccharomyces cerevisiae; [3],0.25 µM
same,lethality,[1]; single intravenous 64 mg/kg,survived with no observable toxicity
same,reduction of kidney fungal burden relative to AmB,C. albicans,1.2 log units
same,"reducing the fungal burden present in the kidneys, compared with AmB (in words)",C. albicans,substantially more effective than AmB
same,cell-killing activity / toxicity towards human red blood cells (in words),human erythrocytes,drastically decreased toxicity towards red blood cells
same,EH90 as multiple of that observed with AmB,human erythrocytes,greater than 45 ×
CC1C=CC=CC=CC=CC=CC=CC=CC(OC2CC(N)C(O)C(C)O2)CC2OC(O)(CC(O)CC(O)C(O)CCC(O)CC(O)CC(=O)OC(C)C(C)C1O)CC(O)C2C(=O)O (stereo not drawn) [C2′deOAmB],toxicity to yeast,yeast,toxic to yeast
"COC(=O)[C@H]1[C@@H]2C[C@@H](O[C@@H]3O[C@H](C)[C@@H](O)[C@H](N)[C@@H]3O)/C=C/C=C/C=C/C=C/C=C/C=C/C=C/[C@H](C)[C@@H](O)[C@@H](C)[C@H](C)OC(=O)C[C@H](O)C[C@H](O)CC[C@@H](O)[C@H](O)C[C@H](O)C[C@](O)(C[C@@H]1O)O2 [AmBME, reference compound]",MIC,Saccharomyces cerevisiae; broth microdilution,0.25 µM
same,EH90 (μM) red blood cells,human erythrocytes,30.67 ± 5.38 µM
same,hemolysis concentration relative to AmB,human erythrocytes,one third
CC1OC(O[C@H]2/C=C/C=C/C=C/C=C/C=C/C=C/C=C/[C@H](C)[C@@H](O)[C@@H](C)[C@H](C)OC(=O)C[C@H](O)C[C@H](O)CC[C@@H](O)[C@H](O)C[C@H](O)C[C@]3(O)C[C@H](O)[C@@H](NC(=O)NCCC(=O)O)C(C2)O3)C(O)C(N)C1O (stereo partly drawn) [AmBCU],MIC,Candida albicans; [2],1 µM
same,MIC,Saccharomyces cerevisiae; [3],3 µM
same,cell-killing activity / toxicity towards human red blood cells (in words),human erythrocytes,drastically decreased toxicity towards red blood cells
same,EH90 as multiple of that observed with AmB,human erythrocytes,more than 30 ×
